Measured values as given in patent US20060069132A1, “Azolecarboxamide herbicides” (priority 2004, published 2006).

Columns and labels:
[1] = test system: catchweed bedstraw; experiment: Test F pre-/postemergence herbicide test; type: in vivo, Gallium aparine
Description: (§1) Seeds of plant species selected from annual blugrass (Poa annua L.), blackgrass (Alopecurus myosuroides Huds.), catchweed bedstraw (Gallium aparine L.), common chickweed (Stellaria media (L.) Vill./Cyr.), downy bromegrass (Bromus tectorum L.), green foxtail (Setaria viridis (L.) Beauv.), Italian ryegrass (Lolium multiflorum Lam.), kochia (Kochia scoparia (L.). Schrad.), lambsquarters (Chenopodium album L.), littleseed canarygrass (Phalaris minor Retz.), pigweed (Amaranthus retroflexus L.), Russian thistle (Salsola kali L. ssp. Ruthenica (Iljin) Soo), wild buckwheat (Polygonum convolvulus L.), wild mustard (Sinapis arvensis L.), wild oat (Avena fatua L.), windgrass (Apera spica-venti (L.) Beauv.), winter barley (Hordeum vulgare L.), and wheat (Triticum aestivum L.) were planted and treated preemergence with test chemicals formulated in a non-phytotoxic solvent mixture which included a surfactant.
(§2) At the same time, plants selected from these crop and weed species were treated with postemergence applications of some of the test chemicals formulated in the same manner. Plants ranged in height from 2 to 18 cm (1- to 4-leaf stage) for postemergence treatments. Treated plants and controls were maintained in a greenhouse for 12 to 14 days, after which time all species were compared to controls and visually evaluated. Plant response ratings, summarized in Table F, are based on a scale of 0 to 100 where 0 is no effect and 100 is complete control. A dash (-) response means no test result.

[2] = test system: lambsquarters; experiment: Test F pre-/postemergence herbicide test; type: in vivo, Chenopodium album
Description: as §1, §2

[3] = test system: littleseed canarygrass; experiment: Test F pre-/postemergence herbicide test; type: in vivo, Phalaris minor
Description: as §1, §2

[4] = test system: pigweed (AMARE); experiment: Test J Compounds 2 and 6 alone and in combination with other herbicides, foliage spray; type: in vivo, Amaranthus retroflexus; design: key to AMARE Obsd.: 0 = no effect, 100 = complete control; conditions: for AMARE Obsd.: applied alone
Description: Colby's Equation was used to calculate the expected additive herbicidal effect of the mixtures of Compound 6 with Harmony® Extra (i.e. a 2:1 mixture by weight of thifensulfuron-methyl and tribenuron-methyl). Colby's Equation (Colby, S. R. “Calculating Synergistic and Antagonistic Responses of Herbicide Combinations,” Weeds, 15(1), pp 20-22 (1967)) calculates the expected additive effect of herbicidal mixtures, and for two active ingredients is of the form: Pa+b=Pa+Pb−(PaPb/100) wherein • Pa+b is the percentage effect of the mixture expected from additive contribution of the individual components, • Pa is the observed percentage effect of the first active ingredient at the same use rate as in the mixture, and • Pb is the observed percentage effect of the second active ingredient at the same use rate as in the mixture.
(§3) Seeds of test plants consisting of barnyardgrass (ECHCG; Echinochloa crus-galli (L.) Beauv.), blackgrass (ALOMY; Alopecurus myosuroides Huds.), Surinam grass (BRADC; Urochloa decumbens (Staph) R. D. Webster, previously named Brachiaria decumbens Stapf), cocklebur (XANST, Xanthium strumarium L.), corn (ZEAMD, Zea mays L. cv. ‘Pioneer 33G26’), large crabgrass (DIGSA, Digitaria sanguinalis (L.) Scop.), giant foxtail (SETFA, Setaria faberi Herrm.), lambsquarters (CHEAL, Chenopodium album L.), morningglory (IPOCO, Ipomoea coccinea L.), pigweed (AMARE, Amaranthus retroflexus L.), velvetleaf (ABUTH, Abutilon theophrasti Medik.) wheat (TRZAS, Triticum aestivum L. cv. ‘Recital’) and wild oat (AVEFA, Avena fatua L.) were planted in Redi-Earth® planting medium (Scotts Company, 14111 Scottslawn Road, Marysville, Ohio 43041) comprising spaghnum peat moss and vermiculite. Seeds of small-seeded species were planted about 1 cm deep; larger seeds were planted about 2.5 cm deep. Plants were grown in a greenhouse using supplemental lighting to maintain a photoperiod of about 14 hours; daytime and nighttime temperatures were about 24-30° C. and 22-25° C., respectively. […] Also listed in Table J are the expected effects for the mixtures calculated using Colby's Equation.

[5] = test system: wheat (TRZAS); experiment: as above; type: in vivo, Triticum aestivum; design: key: 0 = no effect, 100 = complete control; conditions: applied alone
Description: (§4) Colby's Equation was used to calculate the expected additive herbicidal effect of the mixtures of Compound 6 with Harmony® Extra (i.e. a 2:1 mixture by weight of thifensulfuron-methyl and tribenuron-methyl). […]
as §3, with “vermiculite.” for “vermiculite. Seeds of small-seeded species were planted about 1 cm deep; larger seeds were planted about 2.5 cm deep. Plants were grown in a greenhouse using supplemental lighting to maintain a photoperiod of about 14 hours; daytime and nighttime temperatures were about 24-30° C. and 22-25° C., respectively.”

[6] = test system: wild oat (AVEFA); experiment: as above; type: in vivo, Avena fatua; design: key: 0 = no effect, 100 = complete control; conditions: applied alone
Description: as §4
as §3, with “vermiculite.” for “vermiculite. Seeds of small-seeded species were planted about 1 cm deep; larger seeds were planted about 2.5 cm deep. Plants were grown in a greenhouse using supplemental lighting to maintain a photoperiod of about 14 hours; daytime and nighttime temperatures were about 24-30° C. and 22-25° C., respectively.”

`CCn1nc(C(C)(C)C)cc1C(=O)Nc1cc(C(=O)OC(C)C)c(F)cc1F` [Compound 248] was tested, and the “Plant response rating (0-100), Galium” value ([1]; Postemergence, 31 g ai/ha) was 50, the “Plant response rating (0-100), Galium” value ([1]; Postemergence, 62 g ai/ha) was 50 and the “Plant response rating (0-100), Galium” value ([1]; Postemergence, 125 g ai/ha) was 60. The “Plant response rating (0-100), Galium” value ([1]; Postemergence, 250 g ai/ha) was 60, the “Plant response rating (0-100), Galium” value ([1]; Preemergence, 31 g ai/ha) was 30 and the “Plant response rating (0-100), Galium” value ([1]; Preemergence, 62 g ai/ha) was 50. For the same molecule, the “Plant response rating (0-100), Galium” value ([1]; Preemergence, 125 g ai/ha) was 50, the “Plant response rating (0-100), Galium” value ([1]; Preemergence, 250 g ai/ha) was 60 and the “Plant response rating (0-100), Lambsquarters” value ([2]; Postemergence, 31 g ai/ha) was 35. The “Plant response rating (0-100), Lambsquarters” value ([2]; Postemergence, 62 g ai/ha) was 60, the “Plant response rating (0-100), Lambsquarters” value ([2]; Postemergence, 125 g ai/ha) was 60 and the “Plant response rating (0-100), Lambsquarters” value ([2]; Postemergence, 250 g ai/ha) was 60. The “Plant response rating (0-100), Lambsquarters” value ([2]; Preemergence, 31 g ai/ha) was 40, the “Plant response rating (0-100), Lambsquarters” value ([2]; Preemergence, 62 g ai/ha) was 40 and the “Plant response rating (0-100), Lambsquarters” value ([2]; Preemergence, 125 g ai/ha) was 100. The “Plant response rating (0-100), Lambsquarters” value ([2]; Preemergence, 250 g ai/ha) was 100, the “Plant response rating (0-100), Canarygrass” value ([3]; Postemergence, 31 g ai/ha) was 35 and the “Plant response rating (0-100), Canarygrass” value ([3]; Postemergence, 62 g ai/ha) was 40. The “Plant response rating (0-100), Canarygrass” value ([3]; Postemergence, 125 g ai/ha) was 40, the “Plant response rating (0-100), Canarygrass” value ([3]; Postemergence, 250 g ai/ha) was 45 and the “Plant response rating (0-100), Canarygrass” value ([3]; Preemergence, 31 g ai/ha) was 40. For the same molecule, the “Plant response rating (0-100), Canarygrass” value ([3]; Preemergence, 62 g ai/ha) was 45 and the “Plant response rating (0-100), Canarygrass” value ([3]; Preemergence, 250 g ai/ha) was 75.
In the case of `CCn1nc(C(C)(C)C)cc1C(=O)Nc1cc(C(=O)N(C)C)ccc1F` [Compound 6, N-[5-[(dimethylamino)carbonyl]-2-fluorophenyl]-3-(1,1-dimethylethyl)-1-ethyl-1H-pyrazole-5-carboxamide], the “AMARE Obsd.” value ([4]; 62 g a.i./ha) was 28, the “AMARE Obsd.” value ([4]; 125 g a.i./ha) was 60 and the “observed effect of mixture compared with additive effect expected from Colby's Equation” value ([4]; mixture with atrazine, pigweed, foliage spray, 15 days after treatment) was “greater than additive”. For the same molecule, the “TRZAS Obsd.” value ([5]; 62 g a.i./ha) was 15, the “TRZAS Obsd.” value ([5]; 125 g a.i./ha) was 30 and the “AVEFA Obsd.” value ([6]; 62 g a.i./ha) was 10. For the same molecule, the “AVEFA Obsd.” value ([6]; 125 g a.i./ha) was 25.
